Measured values taken from PMC12915096, “AI‐Driven Acceleration of Fluorescence Probe Discovery” (Advanced Science, 2025).

Biological target: T1, tau aggregates in cleared P301S mice brain (Homo sapiens, UniProt P10636, P618S)
T1 construct: from tissue; host or cells: brain of 9-month-old P301S (PS19) tau transgenic mice, in vivo and ex vivo
Test: 3D transparent brain imaging after tissue clearing
Type: in vivo
Conditions: transgenic mouse brains, ex vivo
Description: After two‐photon imaging, mice were anesthetized by isoflurane and were transcardially perfused with ice‐cold 1×PBS followed with ice‐cold 4% PFA solution. Brain was incubated in 4% PFA at 4°C with shaking overnight. The samples were then washed with 1×PBS for at least 2 h twice at room temperature. The clearing of the fixed samples was conducted with Nuohai enhanced tissue clearing kit (NH‐CR‐230701, Nuohai Life Science (Shanghai) Co., Ltd). Briefly, samples were immersed individually in 20 mL of solution A for 7–8 days (refreshing the solution every two days) with gentle shaking at 37°C. The sample was washed in 1×PBS for 6 h with gentle shaking at room temperature and the PBS refreshed every 2 h. Finally, the samples were RI matched for 3D imaging. 3D fluorescence imaging of the cleared tissues was conducted with a Nuohai LS 18 tiling light sheet microscope (Nuohai Life Science Co., Ltd). A 4‐tile tiling light sheet was used to illuminate the samples, and a 1 × 0.25 NA objective (Olympus MVPLAPO) was used to collect the fluorescence. The magnification of the microscope was set at 4×, and the spatial resolution was roughly 3.3 × 3.3 × 7 µm^3 at the selected imaging conditions. The collected images were processed with the LS 18 image combine software (Nuohai Life Science Co., Ltd) and rendered using Amira (Thermo Fisher Scientific, USA). […]

T1 sequence (P10636 1-412 isoform P10636-7 P272S): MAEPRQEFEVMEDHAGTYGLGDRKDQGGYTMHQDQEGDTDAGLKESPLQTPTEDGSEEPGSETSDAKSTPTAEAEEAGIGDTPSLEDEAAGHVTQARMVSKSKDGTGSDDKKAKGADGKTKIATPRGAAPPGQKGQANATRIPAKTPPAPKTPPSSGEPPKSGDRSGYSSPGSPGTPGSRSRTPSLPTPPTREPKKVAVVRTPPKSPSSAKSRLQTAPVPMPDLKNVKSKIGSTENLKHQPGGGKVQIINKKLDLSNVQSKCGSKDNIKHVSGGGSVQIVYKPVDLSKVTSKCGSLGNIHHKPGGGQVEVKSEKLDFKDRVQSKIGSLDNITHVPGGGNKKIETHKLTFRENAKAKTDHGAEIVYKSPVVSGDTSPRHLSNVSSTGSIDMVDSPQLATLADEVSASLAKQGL

Tau labeling signal after 8 days of tissue clearing: nearly abolished
Structure (SMILES): O=C(O)c1cc(/C=C/c2ccc(/C=C/c3ccc(O)c(C(=O)O)c3)c(F)c2)ccc1O [FSB]
